Target: human recombinant LRRK2 protein (Homo sapiens (Human), UniProt Q5S007)
Assay: LRRK2 Kinase Activity Assay (ADP-Glo)
Assay type: biochemical
Conditions: LRRK2 wt; LRRKtide peptide and ATP substrates; 1h-incubation at 37° C.
Protocol: LRRK2 Kinase reactions were carried out in 384-well white polystyrene plates in a final volume of 6 μl using ADP-Glo™ Kinase Assay kit (Promega Corp.). Compound and substrates (LRRKtide peptide and ATP) in assay buffer were first dispensed in wells. Kinase reaction was then started by the addition of human recombinant LRRK2 protein. After 1h-incubation at 37° C., the enzymatic reaction was stopped by the addition of 6 μl of ADP-Glo Reagent-1 and an additional 40-minutes incubation at 23° C. (residual ATP depletion). A final 30-minutes incubation after 12 μL reagent-2 addition (ADP to ATP conversion and luciferin/luciferase reaction) was performed before luminescent signal acquisition (EnVision™ multimode plate reader-PerkinElmer, Inc.). Data from 10 individual concentrations of tested compounds (N=2) were fitted (XLfit™-ID Business Solutions Ltd) to deliver IC50s (compound concentration leading to 50% inhibition of reference enzymatic activity).
The compounds are dissolved to 5 mM in DMSO. When needed, solutions are sonicated in a bath sonicator.
Table 2 provides the IC50 values of the compounds according to the invention, obtained using the above-mentioned kinase assay. Activities are represented as +++, ++ and +, having the following meanings: • +++ means IC50<10 nM • ++ means 10 nM≤IC50<100 nM • + means 100 nM≤IC50<1 μM.

human recombinant LRRK2 protein, sequence (Q5S007 whole entry): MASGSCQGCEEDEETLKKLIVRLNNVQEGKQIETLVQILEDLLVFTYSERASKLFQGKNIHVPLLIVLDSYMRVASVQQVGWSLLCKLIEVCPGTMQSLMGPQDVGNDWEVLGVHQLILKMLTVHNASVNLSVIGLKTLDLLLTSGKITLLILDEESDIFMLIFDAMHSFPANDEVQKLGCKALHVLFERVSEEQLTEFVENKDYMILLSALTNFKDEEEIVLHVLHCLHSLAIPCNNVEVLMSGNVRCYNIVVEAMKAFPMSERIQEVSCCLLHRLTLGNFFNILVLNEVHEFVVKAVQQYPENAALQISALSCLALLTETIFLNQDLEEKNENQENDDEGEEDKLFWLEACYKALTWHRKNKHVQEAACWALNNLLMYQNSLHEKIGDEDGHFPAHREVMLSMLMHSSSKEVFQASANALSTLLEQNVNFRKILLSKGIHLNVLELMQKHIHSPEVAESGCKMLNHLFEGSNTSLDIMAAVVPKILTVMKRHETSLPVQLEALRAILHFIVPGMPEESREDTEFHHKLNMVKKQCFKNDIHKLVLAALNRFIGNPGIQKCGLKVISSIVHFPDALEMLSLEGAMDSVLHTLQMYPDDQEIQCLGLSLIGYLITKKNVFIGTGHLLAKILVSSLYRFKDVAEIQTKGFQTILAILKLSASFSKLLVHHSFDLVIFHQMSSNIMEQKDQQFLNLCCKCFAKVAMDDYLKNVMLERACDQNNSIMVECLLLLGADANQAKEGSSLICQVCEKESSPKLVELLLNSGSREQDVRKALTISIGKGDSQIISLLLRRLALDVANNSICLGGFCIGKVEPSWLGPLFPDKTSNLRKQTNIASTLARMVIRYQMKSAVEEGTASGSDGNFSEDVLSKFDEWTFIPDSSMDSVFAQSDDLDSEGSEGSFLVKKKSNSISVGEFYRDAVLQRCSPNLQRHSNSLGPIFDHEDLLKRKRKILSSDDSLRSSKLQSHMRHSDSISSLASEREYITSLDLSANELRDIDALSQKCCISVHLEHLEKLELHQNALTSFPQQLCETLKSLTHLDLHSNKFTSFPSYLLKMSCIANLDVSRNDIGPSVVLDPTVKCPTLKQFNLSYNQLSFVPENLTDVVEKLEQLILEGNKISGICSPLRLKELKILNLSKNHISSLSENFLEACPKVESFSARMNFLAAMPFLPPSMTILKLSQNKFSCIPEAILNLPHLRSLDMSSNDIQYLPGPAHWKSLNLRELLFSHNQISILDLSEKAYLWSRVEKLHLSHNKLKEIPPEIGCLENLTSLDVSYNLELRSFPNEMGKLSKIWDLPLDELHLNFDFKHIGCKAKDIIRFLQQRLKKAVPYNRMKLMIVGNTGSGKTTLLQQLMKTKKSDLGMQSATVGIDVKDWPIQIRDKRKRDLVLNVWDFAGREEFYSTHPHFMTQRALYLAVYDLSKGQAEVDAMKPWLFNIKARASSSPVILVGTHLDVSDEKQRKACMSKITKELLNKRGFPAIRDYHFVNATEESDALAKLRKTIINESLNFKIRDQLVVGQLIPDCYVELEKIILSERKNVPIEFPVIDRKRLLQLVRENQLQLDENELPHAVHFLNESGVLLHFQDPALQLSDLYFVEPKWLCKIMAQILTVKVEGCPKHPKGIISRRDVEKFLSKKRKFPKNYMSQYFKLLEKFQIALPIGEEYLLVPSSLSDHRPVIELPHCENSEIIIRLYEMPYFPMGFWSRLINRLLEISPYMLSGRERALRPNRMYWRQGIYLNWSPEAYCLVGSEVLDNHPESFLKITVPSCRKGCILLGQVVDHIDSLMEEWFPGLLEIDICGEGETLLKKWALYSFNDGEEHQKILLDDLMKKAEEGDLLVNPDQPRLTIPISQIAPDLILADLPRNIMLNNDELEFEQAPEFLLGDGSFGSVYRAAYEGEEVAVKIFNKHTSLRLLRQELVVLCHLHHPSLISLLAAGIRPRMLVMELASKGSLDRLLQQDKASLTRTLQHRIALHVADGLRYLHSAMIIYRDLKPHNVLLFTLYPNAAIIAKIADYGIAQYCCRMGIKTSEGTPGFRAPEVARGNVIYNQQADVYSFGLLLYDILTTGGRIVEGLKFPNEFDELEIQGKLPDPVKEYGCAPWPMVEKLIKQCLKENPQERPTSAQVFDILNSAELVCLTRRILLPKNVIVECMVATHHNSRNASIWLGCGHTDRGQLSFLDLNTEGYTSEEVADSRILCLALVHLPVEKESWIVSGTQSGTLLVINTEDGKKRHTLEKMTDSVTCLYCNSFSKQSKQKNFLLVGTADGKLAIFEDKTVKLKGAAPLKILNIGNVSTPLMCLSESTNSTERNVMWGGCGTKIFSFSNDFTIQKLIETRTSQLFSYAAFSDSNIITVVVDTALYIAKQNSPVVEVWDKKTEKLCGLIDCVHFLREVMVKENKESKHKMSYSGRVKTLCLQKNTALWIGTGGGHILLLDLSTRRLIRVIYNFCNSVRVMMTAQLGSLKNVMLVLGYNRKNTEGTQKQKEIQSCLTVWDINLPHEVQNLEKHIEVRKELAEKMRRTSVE

| SMILES | IC50 [nM] |
| --- | --- |
| O=C1NCCCNc2ccc3[nH]nc(c3c2)-c2cccc(c2)CO1 [Example 141, 8-oxa-10,14,19,20-tetraazatetracyclo[13.5.2.1^2,6.0^18,21]tricosa-1(20),2(23), 3,5,15(22),16,18(21)-heptaen-9-one] | 100 to 1000 |
| N#CC1CCN(c2cc3cc(c2)-c2n[nH]c4ccc(cc24)OCCCNC(=O)OC3)CC1 [Example 33, 1-{9-oxo-8,14-dioxa-10,19,20-triazatetracyclo[13.5.2.1^2,6.0^18,21]tricosa-1(20),2,4,6(23),15,17,21-heptaen-4-yl}piperidine-4-carbonitrile] | < 10 |
| O=C1NCCCOc2ccc3[nH]nc(c3c2)-c2cc(cc(N3CCN(C4COC4)CC3)c2)CO1 [Example 15, 4-[4-(oxetan-3-yl)piperazin-1-yl]-8,14-dioxa-10,19,20-triazatetracyclo[13.5.2.1^2,6.0^18,21]tricosa-1(20),2,4,6(23),15,17,21-heptaen-9-one] | < 10 |
| CO[C@@H]1CCN(c2cc3nc(n2)COC(=O)NCC[C@@H](C)Oc2ccc4[nH]nc-3c4c2)C1 [Example 137, (13R)-4-[(3R)-3-methoxypyrrolidin-1-yl]-13-methyl-8,14-dioxa-5,10,19,20,23-pentaazatetracyclo[13.5.2.1^2,6.0^18,21]tricosa-1(20),2,4,6(23),15,17,21-heptaen-9-one] | < 10 |
| CC1OC(=O)NCC[C@@H](C)Oc2ccc3[nH]nc(c3c2)-c2ccnc1n2 (single isomer, unassigned) [Example 131, (7R,13R)- or (7S,13R)-7,13-dimethyl-8,14-dioxa-5,10,19,20,23-penta azatetracyclo[13.5.2.1^2,6.0^18,21]tricosa-1(20),2,4,6(23),15,17,21-heptaen-9-one] | < 10 |
| C[C@H]1CCNC(=O)OCc2cccc(c2)-c2n[nH]c3ccc(cc23)O1 [Example 62, (13S)-13-methyl-8,14-dioxa-10,19,20-triazatetracyclo[13.5.2.1^2,6.0^18,21]tricosa-1(20),2(23),3,5,15(22),16,18(21)-heptaen-9-one] | < 10 |
| COc1cc2cc(c1F)C(C)OC(=O)NCCCOc1ccc3[nH]nc-2c3c1 (centres unmarked) [Example 95, 5-fluoro-4-methoxy-7-methyl-8,14-dioxa-10,19,20-triazatetracyclo[13.5.2.1^2,6.0^18,21]tricosa-1(20),2(23),3,5,15(22),16,18(21)-heptaen-9-one] | < 10 |
| O=C1NCCCOc2ccc3[nH]nc(c3c2)-c2cc(cc(C3=CCNCC3)c2)CO1 [Example 82, 4-(1,2,3,6-tetrahydropyridin-4-yl)-8,14-dioxa-10,19,20-triazatetracyclo[13.5.2.1^2,6.0^18,21]tricosa-1(20),2(23),3,5,15(22),16,18(21)-heptaen-9-one] | < 10 |
| O=C1NCCCOc2ccc3[nH]nc(c3c2)-c2cc(cc(N3CCC(N4CCOCC4)CC3)c2)CO1 [Example 38, 4-[4-(morpholin-4-yl)piperidin-1-yl]-8,14-dioxa-10,19,20-triazatetracyclo[13.5.2.1^2,6.0^18,21]tricosa-1(20),2,4,6(23),15,17,21-heptaen-9-one] | < 10 |
| CC1CNC(=O)OCc2cccc(c2)-c2n[nH]c3ccc(cc23)OC1 (centres unmarked) [Example 86, 12-methyl-8,14-dioxa-10,19,20-triazatetracyclo[13.5.2.1^2,6.0^18,21]tricosa-1(20),2(23),3,5,15(22),16,18(21)-heptaen-9-one] | < 10 |
| CC1CCNC(=O)OCc2cccc(c2)-c2n[nH]c3ccc(cc23)O1 (centres unmarked) [Example 50, 13-methyl-8,14-dioxa-10,19,20-triazatetracyclo[13.5.2.1^2,6.0^18,21]tricosa-1(20),2,4,6(23),15,17,21-heptaen-9-one] | < 10 |
| CC1CCOc2ccc3[nH]nc(c3c2)-c2cccc(c2)COC(=O)N1 (centres unmarked) [Example 72, 11-methyl-8,14-dioxa-10,19,20-triazatetracyclo[13.5.2.1^2,6.0^18,21]tricosa-1(20),2,4,6(23),15,17,21-heptaen-9-one] | < 10 |
| Cc1cc2[nH]nc3c2cc1O[C@H](C)CCNC(=O)OCc1cccc-3c1 [Example 139, (13R)-13,16-dimethyl-8,14-dioxa-10,19,20-triazatetracyclo[13.5.2.1^2,6.0^18,21]tricosa-1(20),2,4,6(23),15,17,21-heptaen-9-one] | < 10 |
| CC1OC(=O)NCC[C@@H](C)Oc2ccc3[nH]nc(c3c2)-c2ccnc1n2 (single isomer, unassigned) [Example 130, (7R,13R)- or (7S,13R)-7,13-dimethyl-8,14-dioxa-5,10,19,20,23-penta azatetracyclo[13.5.2.1^2,6.0^18,21]tricosa-1(20),2,4,6(23),15,17,21-heptaen-9-one] | 10 to 100 |
| O=C1NCCCOc2ccc3[nH]nc(c3c2)-c2cc(cc(N3C[C@@H]4C[C@H]3CO4)c2)CO1 [Example 40] | < 10 |
| CC1CNC(=O)OCCn2cc(cn2)-c2n[nH]c3ccc(cc23)OC1 (centres unmarked) [Example 93, 12-methyl-8,14-dioxa-4,5,10,19,20-pentaazatetracyclo[13.5.2.1^2,5.0^18,21]tricosa-1(20),2(23),3,15(22),16,18(21)-hexaen-9-one] | < 10 |
| COc1c(F)cc2cc1C(C)OC(=O)NCCCOc1ccc3[nH]nc-2c3c1 (centres unmarked) [Example 89, 4-fluoro-5-methoxy-7-methyl-8,14-dioxa-10,19,20-triazatetracyclo[13.5.2.1^2,6.0^18,21]tricosa-1(20),2(23),3,5,15(22),16,18(21)-heptaen-9-one] | 100 to 1000 |
| C[C@@H]1CCNC(=O)OCc2cccc(c2)-c2n[nH]c3cnc(cc23)O1 [Example 162, (13R)-13-methyl-8,14-dioxa-10,16,19,20-tetraazatetracyclo[13.5.2.1^2,6.0^18,21]tricosa-1(20),2(23),3,5,15(22),16,18(21)-heptaen-9-one] | < 10 |
| CC(C)N1CCN(c2cc3cc(c2)-c2n[nH]c4ccc(cc24)OCCCNC(=O)OC3)CC1 [Example 13, 4-[4-(propan-2-yl)piperazin-1-yl]-8,14-dioxa-10,19,20-triazatetracyclo[13.5.2.1^2,6.0^18,21]tricosa-1(20),2,4,6(23),15,17,21-heptaen-9-one] | < 10 |

Continued, values first:

| IC50 [nM] | SMILES |
| --- | --- |
| 10 to 100 | CC(C)C1COC(=O)NCCCOc2ccc3[nH]nc(c3c2)-c2cnn1c2 (centres unmarked) [Example 112, 6-(propan-2-yl)-8,14-dioxa-4,5,10,19,20-pentaazatetracyclo[13.5.2.1^2,5.0^18,21]tricosa-1(20),2(23),3,15(22),16,18(21)-hexaen-9-one] |
| 100 to 1000 | O=C1NCCCOc2ccc3[nH]nc(c3c2)-c2cnn(c2)C(C2CCOCC2)CO1 (centres unmarked) [Example 118, 6-(oxan-4-yl)-8,14-dioxa-4,5,10,19,20-pentaazatetracyclo[13.5.2.1^2,5.0^18,21]tricosa-1(20),2(23),3,15,17,21-hexaen-9-one] |
| < 10 | CN(c1cc2cc(c1)-c1n[nH]c3ccc(cc13)OCCCNC(=O)OC2)C1COC1 [Example 52, 4-[methyl(oxetan-3-yl)amino]-8,14-dioxa-10,19,20-triazatetracyclo[13.5.2.1^2,6.0^18,21]tricosa-1(20),2,4,6(23),15,17,21-heptaen-9-one] |
| < 10 | CCN(CC)c1cc2cc(c1)-c1n[nH]c3ccc(cc13)OCCCNC(=O)OC2 [Example 47, 4-(diethylamino)-8,14-dioxa-10,19,20-triazatetracyclo[13.5.2.1^2,6.0^18,21]tricosa-1(20),2,4,6(23),15,17,21-heptaen-9-one] |
| < 10 | O=C1NCCCOc2ccc3[nH]nc(c3c2)-c2nc(cs2)CCO1 [Example 135, 8,14-dioxa-3-thia-10,19,20,23-tetraazatetracyclo[13.5.2.1^2,5.0^18,21]tricosa-1(20),2(23),4,15,17,21-hexaen-9-one] |
| < 10 | O=C1NCCCOc2ccc3[nH]nc(c3c2)-c2ccnc(c2)CO1 [Example 7, 8,14-dioxa-5,10,19,20-tetraazatetracyclo[13.5.2.1^2,6.0^18,21]tricosa-1(20),2,4, 6(23),15,17,21-heptaen-9-one] |
| < 10 | C[C@@H]1CCNC(=O)OCc2cccc(n2)-c2n[nH]c3ccc(cc23)O1 [Example 114, (13R)-13-methyl-8,14-dioxa-10,19,20,23-tetraazatetracyclo[13.5.2.1^2,6.0^18,21]tricosa-1(20),2,4,6(23),15,17,21-heptaen-9-one] |
| < 10 | Cc1ccc2cc1COC(=O)NCCCOc1ccc3[nH]nc-2c3c1 [Example 11, 5-methyl-8,14-dioxa-10,19,20-triazatetracyclo[13.5.2.1^2,6.0^18,21]tricosa-1(20),2,4,6(23),15,17,21-heptaen-9-one] |
| 10 to 100 | O=C1NCCCOc2ccc3[nH]nc(c3c2)-c2ccn(n2)CCO1 [Example 84, 8,14-dioxa-5,10,19,20,23-pentaazatetracyclo[13.5.2.1^2,5.0^18,21]tricosa-1(20),2(23),3,15(22),16,18(21)-hexaen-9-one] |
| < 10 | O=C1NCCCOc2ccc3[nH]nc(c3c2)-c2ccc(N3CCOCC3)c(c2)CO1 [Example 45, 5-(morpholin-4-yl)-8,14-dioxa-10,19,20-triazatetracyclo[13.5.2.1^2,6.0^18,21]tricosa-1(20),2,4,6(23),15,17,21-heptaen-9-one] |
